Values quoted from earlier work as cited in patent US20060153925A1, “Novel solid pharmaceutical composition comprising amisulpride” (Sanofi-Aventis, priority 2003, published 2006).

Conditions: administered orally; attributed to partial gastrointestinal absorption

CCN1CCCC1CNC(=O)c1cc(S(=O)(=O)CC)c(N)cc1OC (racemic) [amisulpride, 4-amino-N-[(1-ethyl-2-pyrrolidin-yl)methyl]-5-(ethylsulfonyl)-2-methoxybenzamide]
bioavailability: about 48%
